For orientation: EC50 means the concentration giving half of the maximal effect. As usually defined, the IC50 is the midpoint of a concentration-inhibition curve. Read a low IC50 as greater potency in that assay.

Our source for the EC50, IC50 and outcome values is PubChem BioAssay AID179 (DTP/NCI, 2004).

SMILES strings stand for the structures. Activity calls are given as the source filed them.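 Rule for the calls: active = compounds giving half or more protection of infected cells from virus-caused growth loss, again on retest; inactive = the rest.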 Where a SMILES comes first, the peptide text is derived from it. [ ]: non-standard residue; d: D form. The star is where a group is joined. Arg(NO2) = N=C(NCCC[CH](N)C(=O)O)N[N+](=O)[O-]; X9 = CC(=O)NC1C(N*)OC(CO)C(O)C1O; Cbz = O=C(OCc1ccccc1)*; Boc = CC(C)(C)OC(=O)*

The test relates to CEM cells HIV-1 protection, formazan growth assay. The experiment in a line: NCI AIDS Antiviral Assay. The settings on record: for IC50: measured here: growth of uninfected CEM cells. In outline: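 Steps: treat uninfected and HIV-1-infected human CEM cells at five drug levels; quantify growth by soluble formazan; retest any compound reaching 50% protection; classify actives from the retest.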

Take `CN(c1ccccc1)c1cc2ccccc2nn1`: the EC50 was greater than 200 µM and the IC50 stood at 93.3 µM.

The compound `C[C@H](NC(=O)c1ccccc1SC(=O)OCCCCCl)C(N)=O` came in with an EC50 of 20.9 µM and an IC50 greater than 200 µM.

Turning to `CC(=O)N/C(=C\c1cccc([N+](=O)[O-])c1)c1nc2c3c(ccc2[nH]1)C(=O)c1ccccc1C3=O`, the outcome was inactive.

Turning to `Nc1c(SSc2ccc3ccccc3c2N)ccc2ccccc12`, the EC50 is greater than 50.1 µM and the IC50 was determined as 14.8 µM.

Consider `COc1cc(Nc2cnc3ccc(C(F)(F)F)cc3n2)cc(OC)c1OC`, for which the EC50 is greater than 35.5 µM and the IC50 was 6.92 µM.

With `Fc1ccc2nncc(SCc3ccccc3)c2c1`, the EC50 was greater than 132 µM and the IC50 came out at 19.5 µM.

On to `O=C1OC(CN2CCOCC2)CN1/N=C/c1ccc([N+](=O)[O-])o1` (stereo not drawn), for which the EC50 is greater than 200 µM and the IC50 was 41.7 µM.

As for `COc1ccc2nc(-c3ccccc3)cc(N=[N+]=[N-])c2c1`, the outcome was inactive.

Turning to `O=C(O)CCC(NC(=O)c1ccccc1C(=O)O)C(=O)O` (stereo not drawn), the EC50 is greater than 200 µM and the IC50 was greater than 200 µM.

In the case of `C=CCn1c(=O)c(C(=O)Nc2nc(C34CC5CC(CC(C5)C3)C4)cs2)c(O)c2ccccc21`, the EC50 is greater than 200 µM and the IC50 was determined as 77.6 µM.

Regarding `Nc1nc2nn(-c3ccc(C(=O)O)cc3)nc2c(=O)[nH]1`, the EC50 is greater than 200 µM and the IC50 is greater than 200 µM.

`COc1cc2c(c(OC)c1OC)CCc1cnoc1-2`: the EC50 is greater than 257 µM and the IC50 was greater than 100 µM.

Regarding `COc1ccc2c(c1)N(CC(C)CN(C)C)c1ccccc1S2` (stereo not drawn), the EC50 is greater than 200 µM and the IC50 is greater than 200 µM.

On to `CO/N=C\c1ccc2c(c1)Sc1ccccc1O2`, for which the EC50 is greater than 200 µM and the IC50 is greater than 200 µM.

Regarding `S=c1sc2nc(Cl)nc(Cl)c2s1`, the EC50 is greater than 200 µM and the half-inhibitory concentration (IC50) was 13.2 µM.

In the case of `CC(=O)Oc1ccc2c(c1)c1c(=O)oc(C)nc1n2Cc1ccccc1`, the EC50 is greater than 200 µM and the IC50 is 66.1 µM.

As for `O=C(O)CCCCC[n+]1ccccc1`, the EC50 is greater than 200 µM and the IC50 is greater than 200 µM.

As to `C[C@]12CCNC(=O)C=C1CC[C@@H]1C2CC[C@@]2(C)C1CC[C@@H]2OC(=O)COc1ccc(N(CCCl)CCCl)cc1` (stereo partly drawn), the outcome was inactive.

Regarding `O=C1CSc2ncccc2N1c1ccc([N+](=O)[O-])cn1`, the EC50 is greater than 200 µM and the IC50 was greater than 200 µM.

For the compound `CC(C)(C)OC(=O)NNC(=O)C1Cc2ccccc2OC1=O` (stereo not drawn), the EC50 was greater than 200 µM and the IC50 was greater than 200 µM.

With `C1=CC2CC1C1C(=C3Sc4ccccc4S3)c3nccnc3C(=C3Sc4ccccc4S3)C21` (stereo not drawn), the EC50 is greater than 14.5 µM and the IC50 was greater than 14.5 µM.

`CN1CCCC(C(=O)O)(c2ccccc2)CC1` (stereo not drawn): the outcome was inactive.

Consider `COCOc1c(C(OCOC)c2cnc(Sc3ccccc3)n2C)ccc(OC)c1OC` (stereo not drawn), for which the EC50 is greater than 200 µM and the IC50 is 110 µM.

Consider `COC(=O)C(Cc1c[nH]c2ccccc12)NC(=O)C(Cc1c[nH]c2ccccc12)NC(=O)C(Cc1c[nH]c2ccccc12)NC(=O)C(Cc1c[nH]c2ccccc12)NC(=O)C(Cc1c[nH]c2ccccc12)NC(=O)C(Cc1c[nH]c2ccccc12)NC(=O)OC(C)(C)C` (stereo not drawn) (Boc-WWWWWW-OMe; configuration not given here), for which the EC50 is greater than 100 µM and the IC50 was 60.3 µM.

Regarding `O=C1C(=O)c2ccccc2C(O)=C1Sc1ccccc1`, the EC50 was greater than 200 µM and the IC50 was 13.5 µM.

Take `COC(=O)Nc1nc2ccc(C(=O)c3ccc(F)cc3)cc2[nH]1`: the EC50 is greater than 2 µM and the IC50 stood at 0.0871 µM.

Turning to `CCOC(=O)/C(=C\c1ccc[nH]1)C(=O)c1ccccc1`, the EC50 was greater than 95.5 µM and the IC50 was greater than 95.5 µM.

Consider `C/C(=N/O)c1ccc2c(c1)C(=NO)c1cc(/C(C)=N/O)ccc1-2`, for which the EC50 is greater than 83.2 µM and the IC50 is 11.5 µM.

Regarding `O=C(O)c1nc2ccc(Cl)cc2[nH]c1=O`, the outcome was inactive.

Take `CC(=O)O[C@H]1CC[C@H]2[C@@H]3CCC4=C(C(=O)C=CC4(C)OC(C)=O)[C@H]3CC[C@]12C` (stereo partly drawn): the EC50 was greater than 200 µM and the IC50 came out at 13.8 µM.

For `CCOC(=O)NC(C(C(=O)OCC)C(=O)OCC)(C(F)(F)F)C(F)(F)F`, the EC50 is greater than 200 µM and the IC50 was greater than 200 µM.

As to `CC(=O)NNc1nc(C)c(C(=O)/C=C/c2ccc(N(C)C)cc2)s1`, the EC50 is greater than 55 µM and the IC50 is greater than 55 µM.

With `CC(=O)Oc1cc(OC(C)=O)c2c(=O)c(OC(C)=O)c(-c3ccc(OC(C)=O)c(OC(C)=O)c3)oc2c1`, the EC50 was greater than 200 µM and the IC50 was 9.33 µM.

Take `Cc1ccc2oc(=O)c(C#N)c(/C=C/c3ccc(Cl)cc3)c2c1`: the EC50 was greater than 200 µM and the IC50 is greater than 200 µM.

With `CC[C@@]1(C[C@H]2C[C@@]3(C(=O)OC)c4[nH]c5ccccc5c4CCN3C2=O)COC2(CCCCC2)O1`, the EC50 was greater than 200 µM and the IC50 is 35.5 µM.

For the compound `Nc1nc(N)c2nc(CNc3ccc(C(=O)NC(CCC(=O)O)C(=O)O)cc3F)cnc2n1` (stereo not drawn), the EC50 was greater than 200 µM and the IC50 was 0.0631 µM.

As to `Cc1ccc(C2(C(=O)O)CCCN2)cc1` (stereo not drawn), the EC50 is greater than 200 µM and the IC50 was greater than 200 µM.

With `N#Cc1c(N)[nH]c(S)c1C#N`, the concentration for a half-maximal effect (EC50) is greater than 123 µM and the IC50 came out at 72.4 µM.

Regarding `C/C=C1/CC(C(=O)OC)N(C(=O)OCc2ccccc2)C1=S` (stereo not drawn), the EC50 was greater than 200 µM and the IC50 was greater than 200 µM.

As for `O=C1NC2c3c(I)sc(I)c3/C(=N\O)C2O1` (stereo not drawn), the EC50 was greater than 200 µM and the IC50 amounted to 16.2 µM.

With `CC1CCN(SSc2nc3ccccc3s2)CC1`, the EC50 was 45.7 µM and the IC50 is 112 µM.

For the compound `COc1cc(/C=C2/CCCc3ccccc3C2=O)cc(OC)c1OC`, the EC50 is greater than 200 µM and the IC50 stood at 11.7 µM.

As for `C=C1C(=O)C[C@@]23CCC[C@@]12CC(O)C3` (stereo partly drawn), the result was inactive.

Consider `CCC(C)C(NC(=O)CNC(=O)C(Cc1c[nH]cn1)NC(=O)C(NC(=O)C(CS)NC(=O)C(CCC(N)=O)NC(=O)C(NC(=O)C(NC(=O)C(CO)NC(=O)C(NC(=O)C(CC(=O)NC1OC(CO)C(O)C(O)C1NC(C)=O)NC(=O)C(NC(=O)C(CS)NC(=O)C1CCCN1C(=O)CNC(=O)C(NC(=O)CN)C(C)O)C(C)O)C(C)C)C(C)O)C(C)C)C(C)O)C(=O)NC(CCCNC(=N)N)C(N)=O` (stereo not drawn) (H-GTGPCTD(X9)VSTVQCTHGIR-NH2; configuration not given here), for which the EC50 was greater than 50.1 µM and the IC50 was greater than 50.1 µM.

Take `COc1cc(NC(=O)c2ccc(NC(=O)c3ccc(N)cc3)cc2)c(OC)cc1N=Nc1ccc(N=Nc2ccc3cc(S(=O)(=O)O)cc(S(=O)(=O)O)c3c2)c(C)c1`: the EC50 is 19.5 µM and the IC50 was greater than 100 µM.

Regarding `CC(=O)C1C(=O)OC2C3C=CC(C3)C2C1=O` (stereo not drawn), the EC50 was greater than 309 µM and the half-maximal inhibitory concentration (IC50) is greater than 309 µM.

With `COc1ccc(CCN(C)C2CCC(C#N)(c3ccc(OC)c(OC)c3)CC2)cc1OC` (stereo not drawn), the EC50 is greater than 145 µM and the IC50 stood at 74.1 µM.

Consider `Cc1ccc(C2(c3ccc(C)cc3)SC(=C(C#N)C#N)c3ccccc32)cc1`, for which the concentration for a half-maximal effect (EC50) was greater than 200 µM and the IC50 was greater than 200 µM.

Consider `CC12CCC(C(=O)n3c1nc1ccccc13)C(C)(C)O2` (stereo not drawn), for which the EC50 is greater than 200 µM and the IC50 was greater than 200 µM.

As for `Cc1cc(C2(c3cc(C)c(O)cc3C)OS(=O)(=O)c3ccccc32)c(C)cc1O`, the outcome was inactive.

For `C#CCn1c(I)cc2c(c1=O)COC(=O)[C@]2(O)CC`, the EC50 is greater than 200 µM and the IC50 was greater than 200 µM.

As to `COc1cccc(C2=CCCCCC2)c1OC`, the EC50 is greater than 200 µM and the IC50 came out at 79.4 µM.

In the case of `COC(=O)C(CCCN=C(N)N[N+](=O)[O-])NC(=O)C(Cc1ccccc1)NC(=O)C1CCCN1C(=O)OCc1ccccc1` (stereo not drawn) (Cbz-Pro-Phe-[Arg(NO2)]-OMe; configuration not given here), the EC50 is greater than 112 µM and the IC50 was greater than 112 µM.

For the compound `COc1cc2c(cc1OC)C(Cl)C(c1ccc(Cl)cc1)=C2Cl` (stereo not drawn), the result was inactive.

For `CCN(CCCN(CC)C(=O)Nc1c(C)cccc1C)C(=O)Nc1c(C)cccc1C`, the EC50 is greater than 200 µM and the IC50 was greater than 200 µM.

Regarding `Cc1nc2c(nc1C)C(=O)C=CC2=O`, the EC50 was greater than 200 µM and the IC50 was 11.5 µM.

As to `CC1=COC(=O)c2ccccc2N1`, the EC50 is greater than 537 µM and the IC50 was found to be 141 µM.

`Cn1c(=O)nc2n(-c3cc(C(F)(F)F)cc(C(F)(F)F)c3)c3ccccc3nc-2c1=O`: the outcome was inactive.

In the case of `O=[N+]([O-])c1ccc2[nH]ncc2c1Cl`, the EC50 is greater than 200 µM and the half-maximal inhibitory concentration (IC50) amounted to 9.77 µM.

For the compound `Nc1c(Cl)ncnc1NCCO`, the EC50 was greater than 200 µM and the IC50 is greater than 200 µM.

In the case of `CNS(=O)(=O)NNS(=O)(=O)c1ccc2ccccc2c1`, the EC50 was greater than 575 µM and the IC50 worked out at 170 µM.

Consider `OC(c1ccc(Cl)cc1)(c1ccc(Cl)cc1)c1cncnc1`, for which the result was inactive.

Consider `CC(=O)/C(=C/n1c(=S)sc2ccccc21)C(=O)Nc1ccc([N+](=O)[O-])cc1`, for which the EC50 is greater than 129 µM and the IC50 is 95.5 µM.

Regarding `N#CC1=C(N)OC(c2ccc([N+](=O)[O-])cc2)C1(C#N)C#N` (stereo not drawn), the EC50 is greater than 200 µM and the IC50 is 10 µM.

Turning to `NC(=O)CCC(CCC(N)=O)(CCC(N)=O)[N+](=O)[O-]`, the EC50 is greater than 200 µM and the IC50 is greater than 200 µM.

In the case of `CCN1C(=O)/C(=C2\SC(c3ccccc3)(c3ccccc3)c3ccccc32)SC1=S`, the EC50 is greater than 200 µM and the IC50 was greater than 200 µM.

Regarding `O=C(O)c1ccc([C@@H]2C(=O)N(O)[C@@H]3C=CC[C@@H]32)cc1`, the EC50 is greater than 347 µM and the IC50 is greater than 347 µM.

In the case of `O=C1NC(=O)C(C(=O)C(=O)Nc2ccc(Br)cc2)C(=O)N1`, the EC50 was greater than 191 µM and the IC50 is greater than 191 µM.

`COc1ccc2c(c1C)C(=O)C(O)(CC=C(C)C)O2` (stereo not drawn): the EC50 is greater than 200 µM and the IC50 worked out at 42.7 µM.
